# From ChEMBL document CHEMBL1765013, “Structure-activity relationships in a series of C2-substituted gluco-configured tetrahydroimidazopyridines as β-glucosidase inhibitors” (Bioorg Med Chem, 2011)
# Assay: Inhibition of sweet almond beta-glucosidase after 10 mins using 4-nitrophenylbeta-D-glucopyranoside as a substrate by Lineweaver-Burk and double reciprocal analysis
# Set-up: species or system Prunus dulcis
row,Structure (SMILES),Ki [nM]
1,OC[C@@H]1[C@@H](O)[C@H](O)[C@@H](O)c2nc(CCc3ccc(C4CCCCC4)cc3)cn21,56.1
2,O=C(CCc1cn2c(n1)[C@H](O)[C@@H](O)[C@H](O)[C@H]2CO)Nc1ccccc1,6.8
3,OC[C@@H]1[C@@H](O)[C@H](O)[C@@H](O)c2nccn21,100
4,OC[C@@H]1[C@@H](O)[C@H](O)[C@@H](O)c2nc(CCc3ccc(-c4ccccc4)cc3)cn21,24.5
5,CCCCCCCCc1cn2c(n1)[C@H](O)[C@@H](O)[C@H](O)[C@H]2CO,10.7

# These reach a lower Ki. Values come first.
row,Ki [nM],Structure (SMILES)
1,3.5,CC(C)(CCc1cn2c(n1)[C@H](O)[C@@H](O)[C@H](O)[C@H]2CO)C(=O)Nc1ccccc1
2,1.9,OC[C@@H]1[C@@H](O)[C@H](O)[C@@H](O)c2nc(CCc3ccccc3)cn21
3,0.64,CC(C)(C)CCc1cn2c(n1)[C@H](O)[C@@H](O)[C@H](O)[C@H]2CO
4,0.58,Cc1ccc(CCc2cn3c(n2)[C@H](O)[C@@H](O)[C@H](O)[C@H]3CO)cc1
5,3.2,OC[C@@H]1[C@@H](O)[C@H](O)[C@@H](O)c2nc(CCc3ccc(F)cc3)cn21
6,2,COc1ccc(CCc2cn3c(n2)[C@H](O)[C@@H](O)[C@H](O)[C@H]3CO)cc1
